Type: in vivo
Conditions: dermal delivery via glass cup bulb, approximately 0.0007 g toluene, ~253 g rat, 10-L glass sampling chamber, quadrupole MS m/z=92, throughput 195 mL/min
Experimental: FIG. 5a illustrates a system 200 for real-time monitoring and/or analysis of analytes released to a sampling environment 30 in conjunction with animal exposure studies, according to another embodiment of the invention. In Example 4 below, a live animal (e.g., rat) 32 placed in a sampling environment 30 is dosed or treated with a chemical or a drug delivered, e.g., via a dermal cup bulb 34 in conjunction with a precision syringe 36 or other delivery means, including but not limited to, dermal patch, injection, or the like. Environment 30 is monitored in real-time via coupling with manifold 20 at the breathing (clearance) rate of the animal until desired target analytes, metabolites, and/or chemical indicators of interest are detected or quantified in the mass-selective detector or instrument comprising system 10. […]
A custom made ˜3-cc glass cup bulb 34 including a septum (not shown) made of silicon sealant (Dow Corning, Baltimore, Md.) was affixed to the dermis of an anesthetized ˜253 g rat 32 using a veterinary bonding compound (e.g., vet bond®, 3M, St. Paul, Minn.) and allowed to affix for ˜12 to 14 hours. […] Alternatively, breathing rate can be determined using a breathing plethysmograph (e.g., a double chamber plethysmograph, Buxco Electronics, Inc., Wilmington, N.C.). […]

Cc1ccccc1 [toluene]
Time from exposure to detection of the toluene analyte from the respired breath of animal: about 30 minutes

— patent US7288760B2, “Conformational real-time atmospheric and environmental characterization sampling apparatus and method” (Battelle Memorial Institute, priority 2005, dated 2007)
